Results published in patent US11465990B2, “Heterocyclic antiestrogens” (SUN PHARMA ADVANCED RESEARCH COMPANY LIMITED, priority 2015, dated 2022).

System: MCF-7 cells
Assay: MCF-7 cell growth inhibition assay
Assay type: cell-based
Details: MCF-7 cells plated in presence of estradiol (1 nM), five days incubation, Presto Blue viability; for inhibition at 1 µM: Homo sapiens, MCF7, 120 h; for % inhibition: at 1 μM
Method: MCF-7 Cell Growth Inhibition Assay
MCF-7 cells were plated in 96 well plate in the presence of estradiol (1 nM) and incubated overnight. After 24 hours test compound was added at various concentrations and incubated for five days. On the fifth day, cell viability was evaluated using Presto Blue Cell Viability Reagent. Percentage growth inhibition was calculated as follows: 100−[(O.D. of sample)*100/O.D. of vehicle control] wherein O.D. is optical density.

Compound	inhibition at 1 µM [%]	% inhibition [%]
CC1=C(c2cccc(O)c2)C(c2ccc(/C=C\CN3CCC(CF)(CF)C3)cc2)Oc2ccc(O)cc21 (stereo not shown) [Compound 67]	30.1	–
CC1=C(c2cccc(O)c2)C(c2ccc(C#CCN(C)CCCCCCCCCC(F)F)cc2)Oc2ccc(O)cc21 (stereo not shown) [Compound 69]	–	19.8
CC1=C(c2cccc(O)c2)C(c2ccc(/C=C/CN(C)CCCCCCCCC(F)F)cc2)Oc2ccc(O)cc21 (stereo not shown) [Compound 70]	16.9	–
CC1=C(c2cccc(O)c2)C(c2ccc(/C=C\CN(C)CCCCCCCCC(F)F)cc2)Oc2ccc(O)cc21 (stereo not shown) [Compound 71]	56.8	–
CC1=C(c2cccc(O)c2)C(c2ccc(/C=C\CN3CC[C@@H](CO)C3)cc2)Oc2ccc(O)cc21 (stereo partly shown) [Compound 72]	31.9	–
CC1=C(c2cccc(O)c2)C(c2ccc(/C=C\CN3CC[C@@H](C)C3)cc2)Oc2ccc(O)cc21 (stereo partly shown) [Compound 75]	–	74.4
CC1=C(c2cccc(O)c2)C(c2ccc(/C=C/CNCCCCCCCCCF)cc2)Oc2ccc(O)cc21 (stereo not shown) [Compound 79]	–	64.8
CC1=C(c2cccc(O)c2)C(c2ccc(/C=C/CNCCCCCCCCCF)cc2)Oc2ccc(O)cc21 (stereo not shown) [Compound 80]	–	53
CC1=C(c2cc(O)cc(F)c2)C(c2ccc(/C=C\CN3CC[C@@H](C)C3)cc2)Oc2ccc(O)cc21 (stereo partly shown) [Compound 81]	77.4	–
CC1=C(c2cc(F)cc(F)c2)C(c2ccc(/C=C\CN3CCN(C)CC3)cc2)Oc2ccc(O)cc21 (stereo not shown) [Compound 83]	12.9	–
